Consider one compound from ChEMBL document CHEMBL4043168, “The design and SAR of a novel series of 2-aminopyridine based LRRK2 inhibitors” (Bioorg Med Chem Lett, 2017).

Series [1] addresses T1, Inhibitor of nuclear factor kappa-B kinase subunit epsilon (Homo sapiens) (UniProt Q14164).
T1 sequence (whole entry): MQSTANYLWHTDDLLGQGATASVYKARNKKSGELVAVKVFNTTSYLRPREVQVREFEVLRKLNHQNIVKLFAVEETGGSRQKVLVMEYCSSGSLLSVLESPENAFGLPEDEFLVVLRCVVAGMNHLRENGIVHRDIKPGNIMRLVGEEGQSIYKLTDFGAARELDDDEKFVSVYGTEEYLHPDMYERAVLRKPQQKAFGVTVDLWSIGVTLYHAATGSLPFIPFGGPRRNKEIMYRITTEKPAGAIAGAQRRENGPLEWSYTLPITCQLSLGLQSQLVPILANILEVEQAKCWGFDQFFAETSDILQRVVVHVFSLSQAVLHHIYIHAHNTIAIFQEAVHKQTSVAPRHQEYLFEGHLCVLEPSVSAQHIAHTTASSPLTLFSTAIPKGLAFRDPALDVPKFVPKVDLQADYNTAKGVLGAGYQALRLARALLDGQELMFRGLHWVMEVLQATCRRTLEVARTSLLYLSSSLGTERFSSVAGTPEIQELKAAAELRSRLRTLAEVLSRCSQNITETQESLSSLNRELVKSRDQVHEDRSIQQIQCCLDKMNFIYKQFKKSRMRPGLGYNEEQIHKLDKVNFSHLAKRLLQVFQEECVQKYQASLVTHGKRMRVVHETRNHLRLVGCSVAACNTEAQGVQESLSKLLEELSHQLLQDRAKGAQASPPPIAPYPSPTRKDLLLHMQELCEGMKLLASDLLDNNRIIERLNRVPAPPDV
The series is described as follows: Inhibition of IKKe conserved Lys2 (DIKPGNIMR) in human PBMC at 1 uM.

In series [2] the target is Phosphatidylinositol 5-phosphate 4-kinase type-2 gamma (Homo sapiens) (UniProt Q8TBX8). Kind of series: Inhibition of PIP4K2C ATP binding site (TLVIKEVSSEDIADMHSNLSNYHQYIVK) in human PBMC at 0.1 uM.
Phosphatidylinositol 5-phosphate 4-kinase type-2 gamma (Homo sapiens), sequence (Q8TBX8 whole entry): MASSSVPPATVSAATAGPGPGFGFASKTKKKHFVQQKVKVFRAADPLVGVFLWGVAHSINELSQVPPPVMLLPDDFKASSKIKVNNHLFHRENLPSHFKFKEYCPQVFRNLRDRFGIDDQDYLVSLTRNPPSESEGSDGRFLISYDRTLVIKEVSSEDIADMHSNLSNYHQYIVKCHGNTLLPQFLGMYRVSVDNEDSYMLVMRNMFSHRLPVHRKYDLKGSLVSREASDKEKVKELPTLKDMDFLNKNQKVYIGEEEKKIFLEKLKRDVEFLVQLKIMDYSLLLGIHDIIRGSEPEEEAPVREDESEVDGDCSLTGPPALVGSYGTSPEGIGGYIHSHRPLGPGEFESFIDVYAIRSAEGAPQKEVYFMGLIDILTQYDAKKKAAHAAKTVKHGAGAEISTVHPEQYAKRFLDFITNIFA
The target in series [3] is Mitogen-activated protein kinase 12 (Homo sapiens) (UniProt P53778). The series is described as follows: Inhibition of p38g conserved Lys2 (DLKPGNLAVNEDCELK) in human PBMC at 1 uM.
Mitogen-activated protein kinase 12 (Homo sapiens), sequence (P53778 whole entry): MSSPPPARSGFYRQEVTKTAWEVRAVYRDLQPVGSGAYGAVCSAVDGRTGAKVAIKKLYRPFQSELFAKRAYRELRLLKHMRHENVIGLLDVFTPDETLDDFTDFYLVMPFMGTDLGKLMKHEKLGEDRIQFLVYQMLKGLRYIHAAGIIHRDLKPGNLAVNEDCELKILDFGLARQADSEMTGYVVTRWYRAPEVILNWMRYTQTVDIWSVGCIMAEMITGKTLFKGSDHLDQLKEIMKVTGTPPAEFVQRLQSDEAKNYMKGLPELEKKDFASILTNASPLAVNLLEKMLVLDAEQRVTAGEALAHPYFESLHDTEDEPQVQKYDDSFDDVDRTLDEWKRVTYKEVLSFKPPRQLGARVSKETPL
Series [4] has as its target Serine/threonine-protein kinase Nek7 (Homo sapiens) (UniProt Q8TDX7). The series is described as follows: Inhibition of NEK7 conserved Lys1 (AACLLDGVPVALKK) in human PBMC at 1 uM.
The target in series [5] is Serine/threonine-protein kinase 24 (Homo sapiens) (UniProt Q9Y6E0). Kind of series: Inhibition of MST3 conserved Lys2 (DIKAANVLLSEHGEVK) in human PBMC at 0.1 uM.
Serine/threonine-protein kinase 24 (Homo sapiens), sequence (Q9Y6E0 whole entry, looked up): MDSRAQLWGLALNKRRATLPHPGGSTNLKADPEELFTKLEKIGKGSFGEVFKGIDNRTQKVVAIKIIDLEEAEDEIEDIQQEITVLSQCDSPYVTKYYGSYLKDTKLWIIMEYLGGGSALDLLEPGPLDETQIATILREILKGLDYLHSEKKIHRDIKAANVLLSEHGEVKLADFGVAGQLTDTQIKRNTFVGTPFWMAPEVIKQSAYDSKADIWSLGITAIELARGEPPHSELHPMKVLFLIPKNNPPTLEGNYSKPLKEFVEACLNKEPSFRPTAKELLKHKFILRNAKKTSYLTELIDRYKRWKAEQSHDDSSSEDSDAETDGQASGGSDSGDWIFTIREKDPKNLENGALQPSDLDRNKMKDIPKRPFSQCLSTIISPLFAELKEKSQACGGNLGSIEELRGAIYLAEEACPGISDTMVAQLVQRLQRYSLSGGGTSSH
Series [6] has as its target T2, Interleukin-1 receptor-associated kinase 4 (Homo sapiens) (UniProt Q9NWZ3).
T2 sequence (whole entry): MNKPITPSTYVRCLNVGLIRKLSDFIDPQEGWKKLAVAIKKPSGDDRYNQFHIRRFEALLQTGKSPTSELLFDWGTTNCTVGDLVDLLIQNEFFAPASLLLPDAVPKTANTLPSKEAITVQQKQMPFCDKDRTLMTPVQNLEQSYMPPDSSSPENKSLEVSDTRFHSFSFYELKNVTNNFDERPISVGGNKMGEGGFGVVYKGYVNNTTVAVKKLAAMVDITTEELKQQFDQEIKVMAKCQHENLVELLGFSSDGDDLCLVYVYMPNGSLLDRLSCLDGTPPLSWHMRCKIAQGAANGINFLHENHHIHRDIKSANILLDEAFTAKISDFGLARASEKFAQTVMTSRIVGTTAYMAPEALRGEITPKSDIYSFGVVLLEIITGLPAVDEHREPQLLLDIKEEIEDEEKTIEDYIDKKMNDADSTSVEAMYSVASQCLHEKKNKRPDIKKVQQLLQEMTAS
The series is described as follows: Inhibition of IRAK4 conserved Lys1 (GYVNNTTVAVKK) in human PBMC at 1 uM.

The target of series [7] is Serine/threonine-protein kinase Nek9 (Homo sapiens) (UniProt Q8TD19). Kind of series: Inhibition of NEK9 conserved Lys2 (DIKTLNIFLTK) in human PBMC at 1 uM.
Serine/threonine-protein kinase Nek9 (Homo sapiens), sequence (Q8TD19 whole entry, the tested form may be a part): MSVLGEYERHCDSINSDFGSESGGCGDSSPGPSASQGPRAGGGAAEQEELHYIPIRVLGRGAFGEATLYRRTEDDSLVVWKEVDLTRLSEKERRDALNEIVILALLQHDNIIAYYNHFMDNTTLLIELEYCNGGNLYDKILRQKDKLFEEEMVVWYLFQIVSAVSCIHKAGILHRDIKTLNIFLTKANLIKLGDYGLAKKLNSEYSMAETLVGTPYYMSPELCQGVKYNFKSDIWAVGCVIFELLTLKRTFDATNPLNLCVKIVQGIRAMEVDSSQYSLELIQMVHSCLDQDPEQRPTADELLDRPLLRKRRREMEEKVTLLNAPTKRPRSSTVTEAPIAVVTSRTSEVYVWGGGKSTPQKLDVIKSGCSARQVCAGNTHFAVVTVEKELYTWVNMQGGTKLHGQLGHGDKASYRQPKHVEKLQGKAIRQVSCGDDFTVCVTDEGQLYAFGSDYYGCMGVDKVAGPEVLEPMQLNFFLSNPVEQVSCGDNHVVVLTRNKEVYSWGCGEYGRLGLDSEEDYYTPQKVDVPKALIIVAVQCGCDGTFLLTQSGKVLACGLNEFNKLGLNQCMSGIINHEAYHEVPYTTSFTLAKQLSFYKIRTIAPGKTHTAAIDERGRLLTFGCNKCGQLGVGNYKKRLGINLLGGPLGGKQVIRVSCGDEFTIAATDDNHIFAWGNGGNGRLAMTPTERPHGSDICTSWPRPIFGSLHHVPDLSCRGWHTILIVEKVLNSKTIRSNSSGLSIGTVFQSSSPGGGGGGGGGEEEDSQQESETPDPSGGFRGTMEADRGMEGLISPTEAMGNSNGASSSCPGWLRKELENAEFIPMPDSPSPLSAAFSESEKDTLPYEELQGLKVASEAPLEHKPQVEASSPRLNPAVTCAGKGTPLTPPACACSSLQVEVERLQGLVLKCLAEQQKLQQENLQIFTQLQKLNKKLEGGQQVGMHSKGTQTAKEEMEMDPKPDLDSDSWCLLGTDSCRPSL
Series [8] has as its target Ribosomal protein S6 kinase alpha-2 (Homo sapiens) (UniProt Q15349). Kind of series: Inhibition of RSK3 domain1 conserved Lys2 (DLKPENILLDEEGHIKITDFGLSK) in human PBMC at 0.1 uM.
Series [9] can be described thus: Ratio of drug level in mouse brain to plasma at 10 mg/kg, po. The format is ADME, organism-based. As to conditions: read-out: BPR.

Ribosomal protein S6 kinase alpha-2 (Homo sapiens), sequence (Q15349 whole entry, the tested form may be a part): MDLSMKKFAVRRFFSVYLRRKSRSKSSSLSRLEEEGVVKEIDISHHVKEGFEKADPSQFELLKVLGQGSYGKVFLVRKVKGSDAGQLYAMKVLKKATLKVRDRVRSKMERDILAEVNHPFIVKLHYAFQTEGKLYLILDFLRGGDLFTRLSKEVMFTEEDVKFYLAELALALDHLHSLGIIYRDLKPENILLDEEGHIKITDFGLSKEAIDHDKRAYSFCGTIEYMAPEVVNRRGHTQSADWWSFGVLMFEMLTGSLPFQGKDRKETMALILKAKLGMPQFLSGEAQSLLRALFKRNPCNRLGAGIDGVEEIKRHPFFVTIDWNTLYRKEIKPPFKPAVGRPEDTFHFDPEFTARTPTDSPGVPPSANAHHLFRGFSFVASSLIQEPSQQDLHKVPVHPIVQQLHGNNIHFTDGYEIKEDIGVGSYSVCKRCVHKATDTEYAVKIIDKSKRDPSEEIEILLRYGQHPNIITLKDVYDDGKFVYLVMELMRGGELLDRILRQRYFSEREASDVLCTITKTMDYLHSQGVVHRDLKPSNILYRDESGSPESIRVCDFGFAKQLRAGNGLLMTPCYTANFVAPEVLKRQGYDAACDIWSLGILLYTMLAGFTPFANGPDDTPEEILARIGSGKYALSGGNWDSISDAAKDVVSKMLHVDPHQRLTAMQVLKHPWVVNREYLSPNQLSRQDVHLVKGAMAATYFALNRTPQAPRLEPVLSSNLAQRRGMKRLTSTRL
Serine/threonine-protein kinase Nek7 (Homo sapiens), sequence (Q8TDX7 whole entry, looked up): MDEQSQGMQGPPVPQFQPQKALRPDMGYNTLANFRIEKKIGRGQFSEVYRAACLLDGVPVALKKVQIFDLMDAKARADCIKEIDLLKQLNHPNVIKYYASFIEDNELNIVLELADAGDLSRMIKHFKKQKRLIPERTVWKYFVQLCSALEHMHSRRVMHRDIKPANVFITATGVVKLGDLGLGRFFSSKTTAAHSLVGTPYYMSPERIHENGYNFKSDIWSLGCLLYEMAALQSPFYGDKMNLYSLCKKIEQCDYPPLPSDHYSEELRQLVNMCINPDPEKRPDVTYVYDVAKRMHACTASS

As for `CC(C)n1cc(-c2cc(-c3ccc(CN4CCOCC4)cc3)cnc2N)nn1`, the inhibition in [1] was 11%; in [2] it was -8.1%; in [3] it was 14%; in series [4], 2.1%; in series [5], 11%; in series [6], 5%. Besides, the inhibition in [7] came out at 25.5%; in series [8], 13%. For the same compound, in series [9], the Kp was 1.3.

As a reminder, the inhibition is the change of the read-out against control, counted positive when it falls.
